In PubChem BioAssay AID1963826 (Molecular Pharmacology Branch, DTP, NCI, 2024):

System: 926638-142-R-J1-PDC complex spheroid viability
Assay: Anticancer human tumor 926638-142-R-J1-PDC patient-derived endometrial carcinoma cell line growth inhibition [POLQ]
Settings: for IC50: curve of first compound; for viability, T/C: stronger effect = lower value
Summary of the method: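 Growth inhibition in 3D: complex spheroids (tumor PDC, HUVEC, MSC) treated with POLQ inhibitor combinations; where Cmax unknown, highest tested concentration 10 microM, except SN-38 at 1 microM.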

[1] = second compound 0.0316 µM, first compound 0.0316 µM
[2] = second compound 0.0316 µM, first compound 0.1 µM
[3] = second compound 0.0316 µM, first compound 0.316 µM
[4] = second compound 0.0316 µM, first compound 1 µM
[5] = second compound 0.0316 µM, first compound 3.16 µM
[6] = second compound 0.0316 µM, first compound 10 µM
[7] = second compound 0.1 µM, first compound 0.0316 µM
[8] = second compound 0.1 µM, first compound 0.1 µM
[9] = second compound 0.1 µM, first compound 0.316 µM
[10] = second compound 0.1 µM, first compound 1 µM
[11] = second compound 0.1 µM, first compound 3.16 µM
[12] = second compound 0.1 µM, first compound 10 µM
[13] = second compound 0.316 µM, first compound 0.0316 µM
[14] = second compound 0.316 µM, first compound 0.1 µM
[15] = second compound 0.316 µM, first compound 0.316 µM
[16] = second compound 0.316 µM, first compound 1 µM
[17] = second compound 0.316 µM, first compound 3.16 µM
[18] = second compound 0.316 µM, first compound 10 µM
[19] = second compound 1 µM, first compound 0.0316 µM
[20] = second compound 1 µM, first compound 0.1 µM
[21] = second compound 1 µM, first compound 0.316 µM
[22] = second compound 1 µM, first compound 1 µM
[23] = second compound 1 µM, first compound 3.16 µM
[24] = second compound 1 µM, first compound 10 µM
[25] = second compound 3.16 µM, first compound 0.0316 µM
[26] = second compound 3.16 µM, first compound 0.1 µM
[27] = second compound 3.16 µM, first compound 0.316 µM
[28] = second compound 3.16 µM, first compound 1 µM
[29] = second compound 3.16 µM, first compound 3.16 µM
[30] = second compound 3.16 µM, first compound 10 µM
[31] = second compound 10 µM, first compound 0.0316 µM
[32] = second compound 10 µM, first compound 0.1 µM
[33] = second compound 10 µM, first compound 0.316 µM
[34] = second compound 10 µM, first compound 1 µM
[35] = second compound 10 µM, first compound 3.16 µM
[36] = second compound 10 µM, first compound 10 µM
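Further: spheroids exposed to drugs for one week before readout.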
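Wherever viability, T/C is given: percent viability relative to DMSO vehicle control wells set as 100%.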

COc1cc2cc(C(=O)CCC(=O)O)sc2cc1OC + COC1C(OC(N)=O)C(O)C(Oc2ccc3c(O)c(NC(=O)c4ccc(O)c(CC=C(C)C)c4)c(=O)oc3c2C)OC1(C)C
IC50 (second compound 0.0316 µM): > 10 µM
IC50 (second compound 0.1 µM): > 10 µM
IC50 (second compound 0.316 µM): > 10 µM
IC50 (second compound 1 µM): > 10 µM
IC50 (second compound 3.16 µM): > 10 µM
IC50 (second compound 10 µM): > 10 µM
viability, T/C [1]: 93.6%
viability, T/C [2]: 98.3%
viability, T/C [3]: 87.9%
viability, T/C [4]: 106%
viability, T/C [5]: 99.6%
viability, T/C [6]: 104%
viability, T/C [7]: 85.9%
viability, T/C [8]: 97.5%
viability, T/C [9]: 98.2%
viability, T/C [10]: 86.4%
viability, T/C [11]: 94.3%
viability, T/C [12]: 101%
viability, T/C [13]: 105%
viability, T/C [14]: 113%
viability, T/C [15]: 88.1%
viability, T/C [16]: 110%
viability, T/C [17]: 91.6%
viability, T/C [18]: 110%
viability, T/C [19]: 86.7%
viability, T/C [20]: 93%
viability, T/C [21]: 94.5%
viability, T/C [22]: 97.9%
viability, T/C [23]: 97.7%
viability, T/C [24]: 111%
viability, T/C [25]: 99.2%
viability, T/C [26]: 101%
viability, T/C [27]: 103%
viability, T/C [28]: 89.3%
viability, T/C [29]: 81.1%
viability, T/C [30]: 75.1%
viability, T/C [31]: 98.4%
viability, T/C [32]: 109%
viability, T/C [33]: 102%
viability, T/C [34]: 106%
viability, T/C [35]: 81.1%
viability, T/C [36]: 99.7%

O=C(Nc1ccc(O)c(NS(=O)(=O)c2ccc(F)cc2)c1)c1ccc(-c2ccccc2)cc1 + COC1C(OC(N)=O)C(O)C(Oc2ccc3c(O)c(NC(=O)c4ccc(O)c(CC=C(C)C)c4)c(=O)oc3c2C)OC1(C)C
IC50 (second compound 0.0316 µM): > 10 µM
IC50 (second compound 0.1 µM): > 10 µM
IC50 (second compound 0.316 µM): > 10 µM
IC50 (second compound 1 µM): > 10 µM
IC50 (second compound 3.16 µM): > 10 µM
IC50 (second compound 10 µM): > 10 µM
viability, T/C [1]: 89.2%
viability, T/C [2]: 87.5%
viability, T/C [3]: 109%
viability, T/C [4]: 99.4%
viability, T/C [5]: 103%
viability, T/C [6]: 69.1%
viability, T/C [7]: 91%
viability, T/C [8]: 96.8%
viability, T/C [9]: 98.6%
viability, T/C [10]: 101%
viability, T/C [11]: 94.8%
viability, T/C [12]: 87.3%
viability, T/C [13]: 108%
viability, T/C [14]: 101%
viability, T/C [15]: 82.2%
viability, T/C [16]: 101%
viability, T/C [17]: 94.8%
viability, T/C [18]: 66%
viability, T/C [19]: 90.6%
viability, T/C [20]: 88.4%
viability, T/C [21]: 89.6%
viability, T/C [22]: 98.3%
viability, T/C [23]: 99.9%
viability, T/C [24]: 80.9%
viability, T/C [25]: 108%
viability, T/C [26]: 88.3%
viability, T/C [27]: 94.5%
viability, T/C [28]: 118%
viability, T/C [29]: 94.6%
viability, T/C [30]: 85.7%
viability, T/C [31]: 97.7%
viability, T/C [32]: 103%
viability, T/C [33]: 93.8%
viability, T/C [34]: 94.7%
viability, T/C [35]: 104%
viability, T/C [36]: 69.4%

COc1cccc2c1C(=O)c1c(O)c3c(c(O)c1C2=O)CC(O)(C(=O)CO)CC3OC1CC(N)C(O)C(C)O1 (stereo unspecified) + Cc1cccc(N(C)C(=O)C2C(O)CCN2c2nc(C)cc(C(F)(F)F)c2C#N)c1
IC50 (second compound 0.0316 µM): 0.133 µM
IC50 (second compound 0.1 µM): 0.144 µM
IC50 (second compound 0.316 µM): 0.138 µM
IC50 (second compound 1 µM): 0.102 µM
IC50 (second compound 3.16 µM): 0.115 µM
IC50 (second compound 10 µM): 0.124 µM
viability, T/C [1]: 76.8%
viability, T/C [2]: 59.4%
viability, T/C [3]: 21%
viability, T/C [4]: 2.89%
viability, T/C [5]: 0.19%
viability, T/C [6]: 0.26%
viability, T/C [7]: 68.6%
viability, T/C [8]: 65%
viability, T/C [9]: 18.5%
viability, T/C [10]: 3.26%
viability, T/C [11]: 0.2%
viability, T/C [12]: 0.33%
viability, T/C [13]: 79.3%
viability, T/C [14]: 61.9%
viability, T/C [15]: 19%
viability, T/C [16]: 2.18%
viability, T/C [17]: 0.15%
viability, T/C [18]: 0.25%
viability, T/C [19]: 71.6%
viability, T/C [20]: 50.4%
viability, T/C [21]: 17.4%
viability, T/C [22]: 2.2%
viability, T/C [23]: 0.14%
viability, T/C [24]: 0.24%
viability, T/C [25]: 82.1%
viability, T/C [26]: 54.8%
viability, T/C [27]: 15.1%
viability, T/C [28]: 2.08%
viability, T/C [29]: 0.25%
viability, T/C [30]: 0.32%
viability, T/C [31]: 70.5%
viability, T/C [32]: 58.4%
viability, T/C [33]: 14.2%
viability, T/C [34]: 1.62%
viability, T/C [35]: 0.26%
viability, T/C [36]: 0.24%
